Experimental data as given in patent publication US20140343049A1, “DIHYDROFURAN DERIVATIVES AS INSECTICIDAL COMPOUNDS” (SYNGENTA PARTICIPATIONS AG, priority 2011, published 2014).

Columns and labels:
Format in all cases: in vivo
[1] = system: Spodoptera littoralis (Egyptian cotton leafworm); test: Spodoptera littoralis cotton leaf disc spray test; conditions: foliar, 72 h, cotton leaf discs sprayed at 200 ppm, 5 L1 larvae, mortality, feeding behavior, growth regulation 3 days after treatment
Text: Cotton leaf discs were placed on agar in a 24-well microtiter plate and sprayed with test solutions at an application rate of 200 ppm. After drying, the leaf discs were infested with 5 L1 larvae. The samples were checked for mortality, feeding behavior, and growth regulation 3 days after treatment (DAT).

[2] = system: Heliothis virescens (tobacco budworm); test: Heliothis virescens egg test on artificial diet; conditions: 96 h, 200 ppm (concentration in well 18 ppm), eggs 0-24 h old, 4 days, egg mortality, larval mortality, growth regulation
Procedure: Eggs (0-24 h old) were placed in 24-well microtiter plate on artificial diet and treated with test solutions at an application rate of 200 ppm (concentration in well 18 ppm) by pipetting. After an incubation period of 4 days, samples were checked for egg mortality, larval mortality, and growth regulation.

[3] = system: Myzus persicae (green peach aphid); test: Myzus persicae (sachet) mixed population test; conditions: 120 h, sucrose solution, application rate 12.5 ppm, mortality 5 days after infestation
Text: Test compounds were applied by pipette into 24 well plates and mixed with Sucrose solution. The plates were closed with a stretched Parafilm. A plastic stencil with 24 holes is placed onto the plate and infested pea seedlings were placed directly on the Parafilm. The infested plate is closed with a gel blotting paper and another plastic stencil and then turned upside down. 5 days after infestation the samples were checked on mortality. Application rate: 12.5 ppm.

[4] = system: Tetranychus urticae (two-spotted spider mite); test: Tetranychus urticae bean leaf disc spray test; conditions: foliar, 192 h, bean leaf discs sprayed at 200 ppm, mixed ages, egg, larval and adult mortality 8 days later
Method in brief: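 Leaf discs of bean on agar were sprayed at 200 ppm, dried, then infested with mixed-age mites. Egg, larval and adult mortality were scored 8 days later.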

[5] = system: Plutella xylostella (diamond back moth); test: Plutella xylostella L2 larvae test on artificial diet; conditions: 144 h, 200 ppm (concentration in well 18 ppm), 6 days, larval mortality and growth regulation
Procedure: 24-well microtiter plate (MTP) with artificial diet was treated with test solutions at an application rate of 200 ppm (concentration in well 18 ppm) by pipetting. After drying, the MTPs were infested with L2 larvae (7-12 per well). After an incubation period of 6 days, samples were checked for larval mortality and growth regulation.

[6] = system: Thrips tabaci (onion thrips); test: Thrips tabaci sunflower leaf disc spray test; conditions: foliar, 168 h, sunflower leaf discs sprayed at 200 ppm, mixed ages, mortality after 7 days
Procedure: Sunflower leaf discs were placed on agar in a 24-well microtiter plate and sprayed with test solutions at an application rate of 200 ppm. […] After drying, the leaf discs were infested with a thrip population of mixed ages. After an incubation period of 7 days, samples were checked for mortality.

[7] = system: Spodoptera littoralis (Egyptian cotton leaf worm); test: Spodoptera littoralis (systemic) test, compound in agar taken up by salad roots; conditions: 120 h, application rate 12.5 ppm, checked 5 days after infestation for mortality, repellent effect, feeding behavior, growth regulation
Text: (§1) Test compounds were applied by pipette into 24 well plates and mixed with agar. Salad seeds were placed on the agar and the multi well plate is closed by another plate which contains also agar. After 7 days the roots have absorbed the compound and the salad has grown into the lid plate. The salad leafs were now cut off into the lid plate. Spodoptera eggs were pipette through a plastic stencil on a humid gel blotting paper and the plate closed with it. The samples are checked for mortality, repellent effect, feeding behavior, and growth regulation 5 days after infestation. Application rate: 12.5 ppm
as §1, with “infestation.” for “infestation. Application rate: 12.5 ppm”

[8] = system: Diabrotica balteata (corn root worm); test: Diabrotica balteata L2 larvae test on artificial diet; conditions: 120 h, 200 ppm (concentration in well 18 ppm), 5 days, larval mortality and growth regulation
Method in brief: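 Artificial diet treated with test solution at 200 ppm or 12.5 ppm application rate (in-well concentration stated as 18 ppm), dried, then infested with 6-10 L2 larvae per well. Larval mortality and growth regulation scored after 5 days.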

Cc1cc(C2=CC(c3cc(Cl)cc(Cl)c3)(C(F)(F)F)OC2)ccc1C(=O)NCC(=O)NCC(F)(F)F (stereo not shown) [Compound A1, 4-[5-(3,5-Dichloro-phenyl)-5-trifluoromethyl-2,5-dihydro-furan-3-yl]-2-methyl-N-[(2,2,2-trifluoro-ethylcarbamoyl)-methyl]-benzamide]
≥ 80%: pest or weed control at 200 ppm [1] | pest or weed control at 200 ppm [2] | pest or weed control at 12.5 ppm [3] | pest or weed control at 200 ppm [4] | pest or weed control at 200 ppm [5] | pest or weed control at 200 ppm [6] | pest or weed control at 12.5 ppm [7] | pest or weed control at 200 ppm [8]

Cc1cc(C2=CC(c3cc(Cl)cc(Cl)c3)(C(F)(F)F)OC2)ccc1C(=O)NC1CS(=O)(=O)C1 (stereo not shown) [Compound A15]
≥ 80%: pest or weed control at 200 ppm [1] | pest or weed control at 200 ppm [2] | pest or weed control at 12.5 ppm [3] | pest or weed control at 200 ppm [4] | pest or weed control at 200 ppm [5] | pest or weed control at 200 ppm [6] | pest or weed control at 12.5 ppm [7] | pest or weed control at 200 ppm [8]

CCN1OC[C@H](NC(=O)c2ccc(C3=CC(c4cc(Cl)cc(Cl)c4)(C(F)(F)F)OC3)cc2C)C1=O (stereo partly drawn) [Compound A16, 4-[5-(3,5-Dichloro-phenyl)-5-trifluoromethyl-2,5-dihydro-furan-3-yl]-N—((S)-2-ethyl-3-oxo-isoxazolidin-4-yl)-2-methyl-benzamide]
≥ 80%: pest or weed control at 200 ppm [1] | pest or weed control at 200 ppm [2] | pest or weed control at 12.5 ppm [3] | pest or weed control at 200 ppm [4] | pest or weed control at 200 ppm [5] | pest or weed control at 200 ppm [6] | pest or weed control at 12.5 ppm [7] | pest or weed control at 200 ppm [8]

Cc1nc(C2=CC(c3cc(Cl)cc(Cl)c3)(C(F)(F)F)OC2)ccc1C(=O)NCC(=O)NCC(F)(F)F (stereo not shown) [Compound C5]
≥ 80%: pest or weed control at 200 ppm [1] | pest or weed control at 200 ppm [2] | pest or weed control at 12.5 ppm [3] | pest or weed control at 200 ppm [4] | pest or weed control at 200 ppm [5] | pest or weed control at 200 ppm [6] | pest or weed control at 12.5 ppm [7] | pest or weed control at 200 ppm [8]

Cc1nc(C2=CC(c3cc(Cl)cc(Cl)c3)(C(F)(F)F)OC2)ccc1C(=O)NC1CS(=O)(=O)C1 (stereo not shown) [Compound C13]
≥ 80%: pest or weed control at 200 ppm [1] | pest or weed control at 200 ppm [2] | pest or weed control at 12.5 ppm [3] | pest or weed control at 200 ppm [4] | pest or weed control at 200 ppm [5] | pest or weed control at 200 ppm [6] | pest or weed control at 12.5 ppm [7] | pest or weed control at 200 ppm [8]

Cc1cc(C2=CC(c3cc(Cl)cc(Cl)c3)(C(F)(F)F)OC2)ccc1C(=O)NCC(F)(F)F (stereo not shown) [Compound D1]
≥ 80%: pest or weed control at 200 ppm [6] | pest or weed control at 12.5 ppm [7]

Cc1cc(C2=CO[C@@](c3cc(Cl)cc(Cl)c3)(C(F)(F)F)C2)ccc1C(=O)NCC(=O)NCC(F)(F)F [Compound D5, 4-[(2S)-2-(3,5-dichlorophenyl)-2-(trifluoromethyl)-3H-furan-4-yl]-2-methyl-N-[2-oxo-2-(2,2,2-trifluoroethylamino)ethyl]benzamide]
≥ 80%: pest or weed control at 200 ppm [1] | pest or weed control at 200 ppm [2] | pest or weed control at 12.5 ppm [3] | pest or weed control at 200 ppm [4] | pest or weed control at 200 ppm [5] | pest or weed control at 200 ppm [6] | pest or weed control at 12.5 ppm [7] | pest or weed control at 200 ppm [8]

Cc1cc(C2=CC(c3cc(Cl)cc(Cl)c3)(C(F)(F)F)OC2)ccc1C(=O)NCC1CCCO1 (stereo not shown) [Compound D8]
≥ 80%: pest or weed control at 12.5 ppm [3] | pest or weed control at 200 ppm [4] | pest or weed control at 200 ppm [6] | pest or weed control at 12.5 ppm [7]

Cc1cc(C2=CC(c3cc(Cl)cc(Cl)c3)(C(F)(F)F)OC2)ccc1C(=O)NCc1ccccn1 (stereo not shown) [Compound D15]
≥ 80%: pest or weed control at 200 ppm [1] | pest or weed control at 200 ppm [2] | pest or weed control at 12.5 ppm [3] | pest or weed control at 200 ppm [4] | pest or weed control at 200 ppm [5] | pest or weed control at 200 ppm [6] | pest or weed control at 12.5 ppm [7] | pest or weed control at 200 ppm [8]

Cc1cc(C2=CC(c3cc(Cl)cc(Cl)c3)(C(F)(F)F)OC2)ccc1C(=O)NC1C[S+]([O-])C1 (stereo not shown) [Compound D20]
≥ 80%: pest or weed control at 200 ppm [5] | pest or weed control at 12.5 ppm [7] | pest or weed control at 200 ppm [8]

Cc1cc(C2=CC(c3cc(Cl)cc(Cl)c3)(C(F)(F)F)OC2)ccc1C(=O)NC1CSC1 (stereo not shown) [Compound D21]
≥ 80%: pest or weed control at 200 ppm [5] | pest or weed control at 12.5 ppm [7] | pest or weed control at 200 ppm [8]

O=C(CNC(=O)c1ccc(C2=CC(c3cc(Cl)cc(Cl)c3)(C(F)(F)F)OC2)nc1Cl)NCC(F)(F)F (stereo not shown) [Compound F1, 2-Chloro-6-[5-(3,5-dichloro-phenyl)-5-trifluoromethyl-2,5-dihydro-furan-3-yl]-N-[(2,2,2-trifluoro-ethylcarbamoyl)-methyl]-nicotinamide]
≥ 80%: pest or weed control at 200 ppm [1] | pest or weed control at 200 ppm [2] | pest or weed control at 12.5 ppm [3] | pest or weed control at 200 ppm [4] | pest or weed control at 200 ppm [5] | pest or weed control at 200 ppm [6] | pest or weed control at 12.5 ppm [7] | pest or weed control at 200 ppm [8]
